The record followed here is paper PMC8468039, “Development of New Meridianin/Leucettine-Derived Hybrid Small Molecules as Nanomolar Multi-Kinase Inhibitors with Antitumor Activity” (Biomedicines, 2021).

SMILES strings stand for the structures.

For data set [1], the system named is panel of 60 different tumor cell lines. The experiment in a line: NCI antitumor assay, panel of 60 tumor cell lines. Format: cell-based. Conditions: single dose 10 µM, result in words. As to the method:
(§1) The antitumor assay was performed according to the protocol of the Drug Evaluation Branch, NCI, Bethesda. A 48 h drug exposure protocol was adopted, and sulforhodamine B (SRB) assay was utilized to assess the cell growth and viability, as reported earlier.
(§2) The inhibition results of tumor cell growth by the newly synthesized compounds (5a–5g) are described in Table 4. The reported measurements have been performed at the NIH National Cancer Institute, USA by a standardized assay including a panel of 60 different tumor cell lines (Supplementary Data). The following cancer cell types were included in these assays: Leukemia, non-small cell lung cancer, colon cancer, CNS cancer, melanoma, ovarian cancer, renal cancer, prostate, and breast cancer. […] Additionally, the 3,4-dimethoxy substituted compound (5b) also suffered poor activity against the cancer cell lines.

The subject of a further data set is RPMI-8226. Briefly: NCI growth inhibition (SRB) assay. The following applies: Homo sapiens, RPMI-8226, Leukemia, single dose 10 µM, 48 h, read-out: Percent Growth Inhibition (GI). In kind it is cell-based. The procedure:
as §1, §2

The next data set deals with HL-60(TB). Briefly: NCI growth inhibition (SRB) assay. Format: cell-based. The following applies: Homo sapiens, Leukemia, single dose 10 µM, 48 h, read-out: Percent Growth Inhibition (GI). The procedure: as §1, §2
For another data set, the system named is NCI-H522. The experiment in a line: NCI growth inhibition (SRB) assay. In kind it is cell-based. The following applies: Homo sapiens, NCI-H522, Non-Small Cell Lung Cancer, single dose 10 µM, 48 h, read-out: Percent Growth Inhibition (GI). The procedure:
as §1, §2

The test system of the next data set is SNB-75. Briefly: NCI growth inhibition (SRB) assay. Format: cell-based. The following applies: Homo sapiens, SNB-75, CNS Cancer, single dose 10 µM, 48 h, read-out: Percent Growth Inhibition (GI). The procedure:
as §1, §2

A further data set concerns COLO 205. Briefly: NCI growth inhibition (SRB) assay. In kind it is cell-based. The following applies: Homo sapiens, COLO 205, Colon Cancer, single dose 10 µM, 48 h, read-out: Percent Growth Inhibition (GI). The procedure:
as §1, §2

The test system of another data set is UACC-62. The experiment in a line: NCI growth inhibition (SRB) assay. In kind it is cell-based. Conditions: Homo sapiens, UACC-62, Melanoma, single dose 10 µM, 48 h, read-out: Percent Growth Inhibition (GI). The procedure: as §1, §2
The subject of the next data set is PC-3. Briefly: NCI growth inhibition (SRB) assay. Format: cell-based. The following applies: Homo sapiens, PC-3, Prostate Cancer, single dose 10 µM, 48 h, read-out: Percent Growth Inhibition (GI). The procedure:
as §1, §2

The subject of another data set is K-562. Briefly: NCI growth inhibition (SRB) assay. In kind it is cell-based. The following applies: Homo sapiens, K562, K-562, Leukemia, single dose 10 µM, 48 h, read-out: Percent Growth Inhibition (GI). As to the method:
as §1, §2

The next data set has as its system UO-31. Briefly: NCI growth inhibition (SRB) assay. In kind it is cell-based. Conditions: Homo sapiens, UO-31, Renal Cancer, single dose 10 µM, 48 h, read-out: Percent Growth Inhibition (GI). As to the method:
as §1, §2

The subject of another data set is HOP-92. Briefly: NCI growth inhibition (SRB) assay. In kind it is cell-based. The following applies: Homo sapiens, HOP-92, Non-Small Cell Lung Cancer, single dose 10 µM, 48 h, read-out: Percent Growth Inhibition (GI). As to the method:
as §1, §2

The test system of a further data set is HT29. The experiment in a line: NCI growth inhibition (SRB) assay. Format: cell-based. The following applies: Homo sapiens, HT-29, HT29, Colon Cancer, single dose 10 µM, 48 h, read-out: Percent Growth Inhibition (GI). As to the method: as §1, §2
Another data set has as its system CCRF-CEM. Briefly: NCI growth inhibition (SRB) assay. In kind it is cell-based. The following applies: Homo sapiens, Leukemia, single dose 10 µM, 48 h, read-out: Percent Growth Inhibition (GI). The procedure:
as §1, §2

Consider `CCOc1cc(OCC)cc(C(=O)Nc2cnc(Nc3ccc(N4CCOCC4)cc3)nc2Oc2ccc(OC)cc2)c1` [5d, 3,5-Diethoxy-N-(4-(4-methoxyphenoxy)-2-((4-morpholinophenyl)amino)pyrimidin-5-yl)benzamide], for which the “inhibitory effects on the different cancer cell lines” value in [1] is recorded as “moderate to poor”. In addition, the inhibition at 10 µM in the data set on RPMI-8226 is 25.6%; with HL-60(TB), 22.8%; with NCI-H522 it was 29.8%; in the data set with SNB-75, 19.2%; in the data set with COLO 205 it was -2.11%; in the data set on UACC-62 it was 12%. In addition, the inhibition at 10 µM with PC-3 was determined as 27.3%; with K-562, 30.7%; in the data set with UO-31, 29.9%; in the data set with HOP-92, 3.34%; with HT29, 9.54%; with CCRF-CEM, 26.1%.

`COc1ccc(Oc2nc(Nc3ccc(N4CCOCC4)cc3)ncc2NC(=O)c2ccnc([N+](=O)[O-])c2)cc1` [5f, N-(4-(4-Methoxyphenoxy)-2-((4-morpholinophenyl)amino)pyrimidin-5-yl)-2-nitroisonicotinamide] showed a melting point of 170 to 171 °C. Moreover, the “inhibitory effects on the different cancer cell lines” value in data set [1] is listed as “moderate to poor”. The inhibition at 10 µM with RPMI-8226 is 16.3%. For the same compound, the inhibition at 10 µM in the data set with HL-60(TB) was -3.19%. The inhibition at 10 µM with NCI-H522 was determined as 9.77%. Besides, the inhibition at 10 µM in the data set on SNB-75 is -4.97%. The inhibition at 10 µM in the data set on COLO 205 is -14.6%. For the same compound, the inhibition at 10 µM in the data set on UACC-62 came to 21.4%. Also, the inhibition at 10 µM in the data set on PC-3 was determined as 13.8%. Moreover, the inhibition at 10 µM with K-562 turned out to be 10.9%. The inhibition at 10 µM in the data set on UO-31 came out at 29%. In addition, in the data set on HOP-92, the inhibition at 10 µM amounted to 1.12%. Besides, the inhibition at 10 µM with HT29 is -8.86%. In addition, in the data set with CCRF-CEM, the inhibition at 10 µM is 16.7%.

On to `COc1ccc(Oc2nc(Nc3ccc(N4CCOCC4)cc3)ncc2NC(=O)c2cccc(SC)c2)cc1` [5g, N-(4-(4-Methoxyphenoxy)-2-((4-morpholinophenyl)amino)pyrimidin-5-yl)-3-(methylthio)benzamide], for which the inhibition at 10 µM in the data set on RPMI-8226 was found to be 20.5%; in the data set on HL-60(TB) it was 13.9%; in the data set with NCI-H522, 26.4%; in the data set on SNB-75 it was 21.5%; in the data set on COLO 205, 4.7%; in the data set on UACC-62, 14.7%. For the same compound, the inhibition at 10 µM came out at 24.9% in the data set with PC-3; 29.1% in the data set with K-562; 43.7% in the data set on UO-31; 20.2% in the data set on HOP-92; 24.3% with HT29; 13% with CCRF-CEM.

On to `COc1ccc(Oc2nc(Nc3ccc(N4CCOCC4)cc3)ncc2NC(=O)c2ccc(OC)c(OC)c2)cc1` [5b, 3,4-Dimethoxy-N-(4-(4-methoxyphenoxy)-2-((4-morpholinophenyl)amino)pyrimidin-5-yl)benzamide], for which the melting point lay in the range of 119.1 to 120.1 °C. The “inhibitory effects on the different cancer cell lines” value in [1] was “moderate to poor”. The inhibition at 10 µM with RPMI-8226 is 11.1%. The inhibition at 10 µM in the data set on HL-60(TB) is 16.4%. In addition, in the data set with NCI-H522, the inhibition at 10 µM is -3.5%. The inhibition at 10 µM in the data set on SNB-75 is -4.29%. Further, the inhibition at 10 µM in the data set with COLO 205 was -2.21%. The inhibition at 10 µM in the data set with UACC-62 was 0.1%. The inhibition at 10 µM in the data set on PC-3 came to 0.75%. In the data set on K-562, the inhibition at 10 µM turned out to be 8.76%. The inhibition at 10 µM in the data set on UO-31 was 33.6%. Besides, the inhibition at 10 µM in the data set on HOP-92 was -1.19%. Also, in the data set on HT29, the inhibition at 10 µM is -2.93%. In addition, the inhibition at 10 µM in the data set with CCRF-CEM was 5.37%.

`COc1ccc(Oc2nc(Nc3ccc(N4CCOCC4)cc3)ncc2NC(=O)c2cc(OC)c(OC)c(OC)c2)cc1` [5c, 3,4,5-Trimethoxy-N-(4-(4-methoxyphenoxy)-2-((4-morpholinophenyl)amino)pyrimidin-5-yl)benzamide] came in with a melting point of 179.5 to 180.5 °C. For the same compound, the inhibition at 10 µM with RPMI-8226 was determined as 18.8%. Also, the inhibition at 10 µM with HL-60(TB) worked out at 31%. Besides, in the data set with NCI-H522, the inhibition at 10 µM stood at 2.25%. Also, the inhibition at 10 µM in the data set with SNB-75 was determined as 3.59%. The inhibition at 10 µM with COLO 205 came out at 21.6%. In addition, the inhibition at 10 µM in the data set with UACC-62 is -0.63%. In addition, the inhibition at 10 µM in the data set with PC-3 was determined as 11.6%. Moreover, the inhibition at 10 µM in the data set with K-562 stood at 20.4%. Also, the inhibition at 10 µM in the data set with UO-31 was 42.3%. Also, the inhibition at 10 µM with HOP-92 was 15.8%. Also, the inhibition at 10 µM in the data set with HT29 stood at 47.4%. The inhibition at 10 µM in the data set on CCRF-CEM was 30.5%.

Regarding `COc1ccc(Oc2nc(Nc3ccc(N4CCOCC4)cc3)ncc2NC(=O)Cc2cc(OC)cc(OC)c2)cc1` [5e, 2-(3,5-Dimethoxyphenyl)-N-(4-(4-methoxyphenoxy)-2-((4-morpholinophenyl)amino)pyrimidin-5-yl)acetamide], the melting point lay within 152.7 to 153.7 °C. Further, the “inhibitory effects on the different cancer cell lines” value in [1] was “moderate to poor”. Besides, the inhibition at 10 µM in the data set with RPMI-8226 was determined as 11.3%. Further, the inhibition at 10 µM with HL-60(TB) was -6.34%. The inhibition at 10 µM in the data set with NCI-H522 amounted to 8.4%. The inhibition at 10 µM with SNB-75 is -3.1%. The inhibition at 10 µM with COLO 205 is -22.4%. Moreover, the inhibition at 10 µM in the data set with UACC-62 came out at 1.34%. Moreover, the inhibition at 10 µM with PC-3 worked out at 8.05%. Also, the inhibition at 10 µM with K-562 was 2.31%. In addition, in the data set on UO-31, the inhibition at 10 µM was 19.4%. The inhibition at 10 µM with HOP-92 came to 4.46%. Also, the inhibition at 10 µM with HT29 is -8.47%. Besides, the inhibition at 10 µM with CCRF-CEM is -4.73%.

As usually defined, the inhibition is the relative decrease from the control value, in per cent. A word on the melting point: it is the temperature of the solid-liquid transition.
